Measured values taken from article PMC9853328, “Potent Platinum(IV) Prodrugs That Incorporate a Biotin Moiety to Selectively Target Cancer Cells” (Pharmaceutics, 2022).
Where two headings read alike, the source gives them in different places.

What was measured:
[1] = test system: Du145 prostate cancer cells; experiment: MTT in vitro cytotoxicity assay, Du145; type: cell-based; conditions: MTT, 72 h drug exposure, n = 3, read-out: GI50 ± SEM, Du145
Procedure: (§1) The in vitro cytotoxicity assays were undertaken at Calvary Mater Hospital, Waratah, NSW, Australia, following a method previously published in the literature. A stock solution for each compound was prepared in DMSO (30 mM) and stored at −20 °C. The cell lines used in the study include HT29 colon, U87 glioblastoma, MCF-7 breast, A2780 ovarian, H460 lung, A431 skin, Du145 prostate, BE2-C neuroblastoma, SJ-G2 glioblastoma, MIA pancreas, and cisplatin-resistant ADDP ovarian (subclone of A2780) cancer cells, as well as the non-cancerous-derived MCF10A breast cell line. The cancer cell lines were cultured in a humidified atmosphere 5% CO2 at 37 °C and maintained in Dulbecco’s modified Eagle’s medium (Trace Biosciences, Sydney, Australia), supplemented with 10% foetal bovine serum, sodium bicarbonate (10 mM), penicillin (100 IU/mL), streptomycin (100 µg/mL), and glutamine (4 mM). The non-cancerous MCF10A cell line was maintained in DMEM:F12 (1:1) cell culture media, with 5% heat inactivated horse serum, supplemented with penicillin (50 IU/mL), streptomycin (50 µg/mL), glutamine (2 mM), HEPES (20 mM), epidermal growth factor (20 ng/mL), hydrocortisone (500 ng/mL), cholera toxin (100 ng/mL), and insulin (10 µg/mL). Cells were plated in duplicate in medium (100 µL) at a density of 2500–4000 cells per well in 96-well plates. On day 0, (24 h after plating) when the cells were in logarithmic growth, medium (100 μL) with or without the test agent was added to each well. The growth inhibitory effects were evaluated after 72 h drug exposure, using the MTT (3-(4,5-dimethylthiazol-2-yl)-2,5-diphenyltetrazolium bromide) assay, with the absorbance read at 540 nm. An eight-point dose–response curve was produced, which was used to determine the concentration at which growth was inhibited by 50% (GI50). This calculation was based on the difference between the optical density values on day 0 and those at the end of drug exposure. […] Experiments were conducted on three separate occasions and GI50 values were reported as the mean and standard error of the mean.

U87 glioblastoma cells [2] = experiment: MTT in vitro cytotoxicity assay, U87; type: cell-based; conditions: 72 h drug exposure, n = 3, read-out: GI50 ± SEM, U87
Procedure: as §1

[3] = test system: cisplatin-resistant ADDP ovarian (subclone of A2780) cancer cells; experiment: MTT in vitro cytotoxicity assay, ADDP; type: cell-based; conditions: n = 3, read-out: GI50 ± SEM, ADDP
Procedure: as §1

[4] = test system: ADDP (subclone of A2780) versus A2780 ovarian cancer cell lines; experiment: Resistance factor, GI50 in ADDP/GI50 in A2780; type: cell-based
A431 skin cancer cells [5] = experiment: MTT in vitro cytotoxicity assay, A431; type: cell-based; conditions: n = 3, read-out: GI50 ± SEM, A431
Procedure: as §1

[6] = test system: MCF-7 breast cancer cells; experiment: MTT in vitro cytotoxicity assay, MCF-7; type: cell-based; conditions: for GI50: MTT, 72 h drug exposure, n = 3, read-out: GI50 ± SEM, MCF-7; for selectivity towards MCF-7 compared to MCF10A (cytotoxicity): GI50 MCF10A versus GI50 MCF-7
H460 lung cancer cells [7] = experiment: MTT in vitro cytotoxicity assay, H460; type: cell-based; conditions: n = 3, read-out: GI50 ± SEM, H460
Procedure: as §1

SJ-G2 glioblastoma cells [8] = experiment: MTT in vitro cytotoxicity assay, SJ-G2; type: cell-based; conditions: n = 3, read-out: GI50 ± SEM, SJ-G2
Procedure: as §1

[9] = test system: MIA pancreas cancer cells; experiment: MTT in vitro cytotoxicity assay, MIA; type: cell-based; conditions: 72 h drug exposure, n = 3, read-out: GI50 ± SEM, MIA
Procedure: as §1

HT29 colon cancer cells [10] = experiment: MTT in vitro cytotoxicity assay, HT29; type: cell-based; conditions: MTT, 72 h drug exposure, n = 3, read-out: GI50 ± SEM, HT29
Procedure: as §1

[11] = test system: BE2-C neuroblastoma cells; experiment: MTT in vitro cytotoxicity assay, BE2-C; type: cell-based; conditions: 72 h drug exposure, n = 3, read-out: GI50 ± SEM, BE2-C
Procedure: as §1

[12] = test system: A2780 ovarian cancer cells; experiment: MTT in vitro cytotoxicity assay, A2780; type: cell-based; conditions: n = 3, read-out: GI50 ± SEM, A2780
Procedure: as §1

[13] = test system: non-cancerous MCF10A breast cell line; experiment: MTT in vitro cytotoxicity assay, MCF10A; type: cell-based; conditions: 72 h drug exposure, n = 3, read-out: GI50 ± SEM, MCF10A
Procedure: as §1

[14] = test system: A2780 ovarian cancer cells; parameters: method as in earlier work; conditions: MTT, same method, taken from the literature; ref [18],[46],[47]; read-out: GI50 ± SEM, A2780; cited from earlier work
[15] = test system: Du145 prostate cancer cells; parameters: method as in earlier work; conditions: MTT, same method, taken from the literature; ref [18],[46],[47]; read-out: GI50 ± SEM, Du145; cited from earlier work
[16] = test system: MCF-7 breast cancer cells; parameters: method as in earlier work; conditions: MTT, same method, taken from the literature; ref [18],[46],[47]; read-out: GI50 ± SEM, MCF-7; cited from earlier work
[17] = test system: MIA pancreas cancer cells; parameters: method as in earlier work; conditions: MTT, same method, taken from the literature; ref [18],[46],[47]; read-out: GI50 ± SEM, MIA; cited from earlier work
SJ-G2 glioblastoma cells [18] = test system: SJ-G2 glioblastoma cells; parameters: method as in earlier work; conditions: MTT, same method, taken from the literature; ref [18],[46],[47]; read-out: GI50 ± SEM, SJ-G2; cited from earlier work
A431 skin cancer cells [19] = test system: A431 skin cancer cells; parameters: method as in earlier work; conditions: MTT, same method, taken from the literature; ref [18],[46],[47]; read-out: GI50 ± SEM, A431; cited from earlier work
H460 lung cancer cells [20] = test system: H460 lung cancer cells; parameters: method as in earlier work; conditions: MTT, same method, taken from the literature; ref [18],[46],[47]; read-out: GI50 ± SEM, H460; cited from earlier work
[21] = test system: BE2-C neuroblastoma cells; parameters: method as in earlier work; conditions: MTT, same method, taken from the literature; ref [18],[46],[47]; read-out: GI50 ± SEM, BE2-C; cited from earlier work
HT29 colon cancer cells [22] = test system: HT29 colon cancer cells; parameters: method as in earlier work; conditions: MTT, same method, taken from the literature; ref [18],[46],[47]; read-out: GI50 ± SEM, HT29; cited from earlier work
U87 glioblastoma cells [23] = test system: U87 glioblastoma cells; parameters: method as in earlier work; conditions: MTT, same method, taken from the literature; ref [18],[46],[47]; read-out: GI50 ± SEM, U87; cited from earlier work
[24] = test system: cisplatin-resistant ADDP ovarian (subclone of A2780) cancer cells; parameters: method as in earlier work; conditions: MTT, same method, taken from the literature; ref [18],[46],[47]; read-out: GI50 ± SEM, ADDP; cited from earlier work
[25] = Homo sapiens, A2780, 72 h drug exposure

SMILES | GI50 [1] [nM] | GI50 (U87 glioblastoma cells [2]) [nM] | GI50 ([3]; 72 h drug exposure) [nM] | Resistance factor (RF) [4] | GI50 (A431 skin cancer cells [5]; 72 h drug exposure) [nM] | GI50 [6] [nM] | GI50 (H460 lung cancer cells [7]; 72 h drug exposure) [nM] | GI50 (SJ-G2 glioblastoma cells [8]; 72 h drug exposure) [nM] | GI50 [9] [nM] | GI50 (HT29 colon cancer cells [10]) [nM] | GI50 [11] [nM] | GI50 ([12]; 72 h drug exposure) [nM] | GI50 [13] [nM] | selectivity towards MCF-7 compared to MCF10A (cytotoxicity) [6] [fold] | further results
Cc1cc2ccc[n+]3c2c2c1ccc[n+]2[Pt-2]31[NH2+][C@H]2CCCC[C@@H]2[NH2+]1.[Cl-].[Cl-] [5MESS(II)] | 22 ± 2.7 | 320 ± 26 | 34 ± 2.3 | 0.557 | 120 ± 25 | 200 ± 12 | 41 ± 5 | 220 ± 10 | 48 ± 2 | 33 ± 3.8 | 270 ± 38 | 61 ± 10 | 30 ± 1.8 | – | –
Cc1cc2ccc[n+]3c2c2c1ccc[n+]2[Pt-2]31([OH])([OH])[NH2+][C@H]2CCCC[C@@H]2[NH2+]1.O=[N+]([O-])[O-].O=[N+]([O-])[O-] [5MESS(IV)] | 36 ± 3.2 | 830 ± 170 | 180 ± 24 | 1.636 | 240 ± 7 | 560 ± 200 | 180 ± 32 | 600 ± 74 | 290 ± 34 | 150 ± 9 | 1100 ± 180 | 110 ± 26 | 220 ± 26 | – | –
COc1cc[n+]2c3c1ccc1c(OC)cc[n+](c13)[Pt-2]21[NH2+][C@H]2CCCC[C@@H]2[NH2+]1.[Cl-].[Cl-] [47OMESS(II)] | 85 ± 4.8 | 390 ± 60 | 170 ± 10 | 0.739 | 350 ± 26 | 150 ± 45 | 500 ± 58 | 1300 ± 67 | 240 ± 42 | 120 ± 16 | 2600 ± 260 | 230 ± 7 | 430 ± 37 | 3 | –
COc1cc[n+]2c3c1ccc1c(OC)cc[n+](c13)[Pt-2]21([OH])([OH])[NH2+][C@H]2CCCC[C@@H]2[NH2+]1.O=[N+]([O-])[O-].O=[N+]([O-])[O-] [47OMESS(IV)] | 270 ± 38 | 2600 ± 390 | 1300 ± 58 | 0.765 | 3300 ± 590 | 510 ± 168 | 3100 ± 210 | 7600 ± 1800 | 1900 ± 460 | 520 ± 85 | 33000 ± 3200 | 1700 ± 230 | 3700 ± 380 | 7 | –
O=C(O)CCCC[C@@H]1SC[C@@H]2NC(=O)N[C@@H]21 [Biotin, biotin] | – | > 50000 | – | – | – | – | – | – | > 50000 | – | – | – | – | – | GI50 ([1]; Homo sapiens, DU-145): > 50000 nM; GI50 [3, 25]: > 50000 nM; GI50 (A431 skin cancer cells [5]; Homo sapiens, A-431, 72 h drug exposure): > 50000 nM; GI50 ([6]; Homo sapiens, MCF7): > 50000 nM; GI50 (H460 lung cancer cells [7]; Homo sapiens, NCI-H460, 72 h drug exposure): > 50000 nM; GI50 (SJ-G2 glioblastoma cells [8]; SJ-G2, 72 h drug exposure): > 50000 nM; GI50 (HT29 colon cancer cells [10]; Homo sapiens, HT-29): > 50000 nM; GI50 ([11]; Homo sapiens, BE(2)-C): > 50000 nM; GI50 [12, 25]: > 50000 nM; GI50 ([13]; Homo sapiens, MCF-10A): > 50000 nM
O=C1[O][Pt]2([NH][C@@H]3CCCC[C@H]3[NH]2)[O]C1=O [Oxaliplatin, oxaliplatin] | – | – | – | 5.138 | – | – | – | – | – | – | – | – | – | – | GI50 [14]: 160 nM; GI50 [15]: 2900 ± 400 nM; GI50 [16]: 500 ± 100 nM; GI50 [17]: 900 ± 200 nM; GI50 (SJ-G2 glioblastoma cells [18]): 3000 ± 1200 nM; GI50 (A431 skin cancer cells [19]): 4100 ± 500 nM; GI50 (H460 lung cancer cells [20]): 1600 ± 100 nM; GI50 [21]: 900 ± 200 nM; GI50 (HT29 colon cancer cells [22]): 900 ± 200 nM; GI50 (U87 glioblastoma cells [23]): 1800 ± 200 nM; GI50 [24]: 822 ± 130 nM
